Source: patent US7632819B1, “Methods and compositions for inhibiting PKC delta cleavage for treatment and prevention of neurodegeneration and apoptosis” (Iowa State University Research Foundation, Inc., priority 2004, dated 2009)
Read-outs that look alike come from different tables or passages of the source. Where a SMILES comes first, the peptide text is derived from it. The star is where a group is joined. Cbz = O=C(OCc1ccccc1)*; CH2F = FC*

Test system: N27 cells
Details: for potency in attenuating apoptosis compared with caspase-3 inhibitor DEVD-FMK, in words: 6-OHDA model
Description: […] Z is the abbreviation for N-benzyloxycarbonyl. Untreated cells were used as control samples. After the treatment, the cells were collected by trypsinization (Trypsin 0.25%, 1 mM EDTA), centrifuged at 200×g for 5 min, washed with PBS twice, then lysed. The lysate was used for DNA fragmentation assay.
DNA fragmentation assays were performed using a recently developed Cell Death Detection ELISA Plus Assay Kit. This is a fast, highly sensitive and reliable assay for the detection of early changes in apoptotic cell death. After treatments, 20 μl of cell lysate was processed according to the manufacturer's protocol. The assay solution consisted of a mixture of anti-histone biotin and anti-DNA-HRP directed against various histones and antibodies to both single stranded DNA and double stranded DNA, the major constituents of nucleosomes. After 2 hr incubation, unbound components were removed by washing with the incubation buffer supplied with the kit. Quantification of the nucleosomes retained by anti-DNA-HRP in the immunocomplex was determined spectrophotometrically with ABTS (2,2′-azino-di[3-ethoxybenzyl thiazoline sulfonate) as a HRP substrate (supplied with the kit). Measurements were made at 405 nm against an ABTS solution as a blank (reference wave length 490 nm).
Chemicals. Protease cocktail, ATP, protein-A-sepharose, protein-G-sepharose and anti-â-actin antibody were obtained from Sigma-Aldrich (St. Louis, Mo.); mouse tyrosine hydroxylase antibody was purchased from Chemicon (Temecula, Calif.); the rabbit polyclonal antibody for tyrosine hydroxylase was obtained from Calbiochem Bioscience, Inc. (King of Prussia, Pa.); rabbit PKCδ antibody was purchased from Santa Cruz Biotechnology, Inc. (Santa Cruz, Calif.); anti-rabbit and anti-mouse secondary antibodies and the ECL chemiluminescence kit were purchased from Amersham Pharmacia Biotech. (Piscataway, N.J.). Alexa 488 conjugated antirabbit/mouse, Cy3 conjugated anti-rabbit/mouse antibody and Hoechst 33342 were purchased from Molecular Probes, Inc. (Eugene, Oreg.). [ã-32P]ATP was purchased from Perkin Elmer Life Science Products (Boston, Mass.). The Bradford protein assay kit was purchased from Bio-Rad Laboratories (Hercules, Calif.). RPMI, fetal bovine serum, -glutamine, penicillin, and streptomycin were purchased from Invitrogen (Gaithersburg, Md.). Quantity One 4.2.0 software was purchased from Bio-Rad. Design and synthesis of z-DIPD-fmk (SEQ ID NO:5). To develop a cell permeable peptide inhibitor to specifically block PKCδ cleavage, we designed the tetrapeptide Asp-Ile-Pro-Asp (DIPD) (SEQ ID NO:5) corresponding to position 324-327 in rat PKCδ cDNA representing the caspase-3 cleavage site. Since this peptide is directed against the caspase-3 cleavage site of PKCδ, it should prevent the proteolytic cleavage and activation of PKCδ mediated by caspase-3. The custom synthesis of the tetrapeptide Z-Asp(OMe)-Ile-Pro-Asp(OMe)-FMK (SEQ ID NO:5) was performed at MP Biomedicals (Irvine, Calif.), a quality company that specializes in developing cell permeable peptide inhibitors directed against apoptosis cell signaling molecules. Briefly, the synthesis was performed with the reaction of Boc-D(OMe)-OH with MBFM (Magnesium benzyl fluoromalonate) to produce Beta-Keto fluoroester, followed by hydrogenation with Pd/c to produce Boc-D(OMe)FK, which was converted into Tfa salt using trifluoroacetic acid. Coupling of Tfa salt with Z-D(OMe)—I—P—OH in DMF with HOBT, HBTU DIEA and workup produced a crude product which was purified by column chromatography over silica gel. Elution with EtOAC:MeOH 95:5 gave pure fractions which were mixed and dried. Crystallization with EtOAC/Hexane, filtration and drying produced the pure product. Animals.

## CC[C@H](C)[C@H](NC(=O)[C@H](CC(=O)OC)NC(=O)OCc1ccccc1)C(=O)N1CCC[C@H]1C(=O)N[C@@H](CC(=O)OC)C(=O)CF [z-DIPD-fmk, Z-Asp(OMe)-Ile-Pro-Asp(OMe)-FMK] (Cbz-D(OMe)IPD(OMe)-CH2F)
100 μM 6-OHDA 24 hr, concentration not stated or dose-response 1-50 μM, listed as N-benzyloxycarbonyl-Asp(OMe)-Ile-Pro-Asp(OMe)-FMK
  effect on 6-OHDA-induced DNA fragmentation / apoptotic cell death: effectively blocked
100 μM 6-OHDA 24 hr, inhibitor 50 μM
  effect on 6-OHDA-induced DNA fragmentation: completely blocked
300 μM MPP+ 36 hr, inhibitor 50 μM
  effect on MPP+-induced DNA fragmentation: significantly attenuated
  potency in attenuating apoptosis compared with caspase-3 inhibitor DEVD-FMK, in words: much more potent
Listed as N-benzyloxycarbonyl-Asp(OMe)-Ile-Pro-Asp(OMe)-FMK
  potency in attenuating apoptosis compared with caspase-3 inhibitor DEVD-FMK, in words: more potent
MPP+, inhibitor concentration not stated
  effect on MPP+-induced DNA fragmentation: dose-dependently attenuated
MPP+, inhibitor concentration not stated, listed as N-benzyloxycarbonyl-Asp(OMe)-Ile-Pro-Asp(OMe)-FMK
  effect on MPP+-induced DNA fragmentation: inhibited
From IC50 values
  potency relative to z-DEVD-fmk at protecting against 6-OHDA-induced apoptotic cell death: at least 3 times
Inhibitor as low as 3 μM
  effect on 6-OHDA-induced DNA fragmentation: almost completely inhibits
read-out: IC50, 6-OHDA-induced DNA fragmentation (apoptotic cell death), 100 μM 6-OHDA 24 hr, inhibitor 1-50 μM
  IC50: 6 µM
